In patent US20250312462A1, “PAK1 DEGRADERS AND METHODS OF USE THEREOF” (INSTITUTE FOR CANCER RESEARCH D/B/A THE RESEARCH INSTITUTE …, priority 2022, published 2025):

Legend:
Assay in all cases: KINOMEscan
Conditions in all cases: read-out: Percent Control
PHKG2 = PHKG2 (Homo sapiens, UniProt P15735)
Protocol: (§1) The kinase engagement assay (KINOMEscan®) was performed by DiscoverX assessing binding abilities toward a set of kinases.

DAPK2 = DAPK2 (Homo sapiens, UniProt Q9UIK4)
Protocol: as §1

CAMKK2 = CAMKK2 (Homo sapiens, UniProt Q96RR4)
Protocol: as §1

RET = RET (Homo sapiens, UniProt P07949)
Protocol: as §1

TLK1 = TLK1 (Homo sapiens, UniProt Q9UKI8)
Protocol: as §1

TSSK1B = TSSK1B (Homo sapiens, UniProt Q9BXA7)
Protocol: as §1

PIM1 = PIM1 (Homo sapiens, UniProt P11309)
PIM1, sequence (P11309 whole entry): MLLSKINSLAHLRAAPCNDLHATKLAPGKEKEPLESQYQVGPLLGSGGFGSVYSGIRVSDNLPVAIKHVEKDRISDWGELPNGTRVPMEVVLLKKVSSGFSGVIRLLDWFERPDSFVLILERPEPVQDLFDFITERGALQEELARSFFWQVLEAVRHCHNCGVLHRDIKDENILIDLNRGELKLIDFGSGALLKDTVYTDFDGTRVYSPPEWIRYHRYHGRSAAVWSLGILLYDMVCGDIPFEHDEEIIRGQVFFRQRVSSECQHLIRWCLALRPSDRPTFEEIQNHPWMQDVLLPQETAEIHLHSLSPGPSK
Protocol: as §1

ULK1 = ULK1 (Homo sapiens, UniProt O75385)
Protocol: as §1

DCAMKL3 = DCAMKL3 (Homo sapiens, UniProt Q9C098)
Protocol: as §1

PIKFYVE = PIKFYVE (Homo sapiens, UniProt Q9Y2I7)
Protocol: as §1

PIM2 = PIM2 (Homo sapiens, UniProt Q9P1W9)
PIM2, sequence (Q9P1W9 whole entry): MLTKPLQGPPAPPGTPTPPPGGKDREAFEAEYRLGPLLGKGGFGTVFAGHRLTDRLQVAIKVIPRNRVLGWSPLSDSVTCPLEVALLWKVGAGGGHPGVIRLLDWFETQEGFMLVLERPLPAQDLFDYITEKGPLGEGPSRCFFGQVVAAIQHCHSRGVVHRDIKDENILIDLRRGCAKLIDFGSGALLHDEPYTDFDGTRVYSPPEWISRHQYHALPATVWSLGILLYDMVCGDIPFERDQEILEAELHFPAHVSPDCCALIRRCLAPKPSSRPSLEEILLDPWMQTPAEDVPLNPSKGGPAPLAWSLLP
Protocol: as §1

CSNK1A1L = CSNK1A1L (Homo sapiens, UniProt Q8N752)
Protocol: as §1

TAOK3 = TAOK3 (Homo sapiens, UniProt Q9H2K8)
Protocol: as §1

KIT(D816V) = KIT(D816V) (Homo sapiens, UniProt P10721, D816V)
Protocol: as §1

PAK2 = PAK2 (Homo sapiens, UniProt Q13177)
PAK2, sequence (Q13177 whole entry): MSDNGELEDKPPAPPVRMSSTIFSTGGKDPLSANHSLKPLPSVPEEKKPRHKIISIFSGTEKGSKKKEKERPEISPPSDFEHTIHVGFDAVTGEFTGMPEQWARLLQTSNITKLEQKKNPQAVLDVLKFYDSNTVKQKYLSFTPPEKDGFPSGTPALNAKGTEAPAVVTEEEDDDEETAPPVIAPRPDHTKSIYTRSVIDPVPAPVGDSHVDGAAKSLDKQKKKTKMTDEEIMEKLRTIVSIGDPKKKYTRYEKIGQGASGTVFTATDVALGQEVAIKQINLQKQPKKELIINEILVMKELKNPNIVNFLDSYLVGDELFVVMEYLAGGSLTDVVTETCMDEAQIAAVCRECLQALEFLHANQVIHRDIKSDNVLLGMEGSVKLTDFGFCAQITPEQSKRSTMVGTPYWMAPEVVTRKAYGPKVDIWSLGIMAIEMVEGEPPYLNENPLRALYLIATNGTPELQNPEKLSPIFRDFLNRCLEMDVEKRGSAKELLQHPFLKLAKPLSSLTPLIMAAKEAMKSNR
Protocol: as §1

SGK3 = SGK3 (Homo sapiens, UniProt Q96BR1)
Protocol: as §1

CTK = CTK (Homo sapiens, UniProt P42679)
Protocol: as §1

EPHA7 = EPHA7 (Homo sapiens, UniProt Q15375)
Protocol: as §1

PCTK3 = PCTK3 (Homo sapiens, UniProt Q07002)
PCTK3, sequence (Q07002 whole entry): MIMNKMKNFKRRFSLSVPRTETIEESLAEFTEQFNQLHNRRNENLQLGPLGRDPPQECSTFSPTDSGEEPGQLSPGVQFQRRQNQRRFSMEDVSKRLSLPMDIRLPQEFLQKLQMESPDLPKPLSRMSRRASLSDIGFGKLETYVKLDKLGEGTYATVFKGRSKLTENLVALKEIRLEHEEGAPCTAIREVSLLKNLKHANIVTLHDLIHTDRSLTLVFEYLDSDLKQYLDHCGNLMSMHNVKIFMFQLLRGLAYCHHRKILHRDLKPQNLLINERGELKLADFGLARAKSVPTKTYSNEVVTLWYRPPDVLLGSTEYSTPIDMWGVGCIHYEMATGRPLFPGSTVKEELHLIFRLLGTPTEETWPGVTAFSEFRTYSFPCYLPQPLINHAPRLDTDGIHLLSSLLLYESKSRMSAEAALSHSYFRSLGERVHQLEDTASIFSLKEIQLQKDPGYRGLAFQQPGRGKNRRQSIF
Protocol: as §1

SLK = SLK (Homo sapiens, UniProt Q9H2G2)
Protocol: as §1

ERN1 = ERN1 (Homo sapiens, UniProt O75460)
Protocol: as §1

CLK2 = CLK2 (Homo sapiens, UniProt P49760)
Protocol: as §1

SIK = SIK (Homo sapiens, UniProt P57059)
Protocol: as §1

RAF1 = RAF1 (Homo sapiens, UniProt P04049)
RAF1, sequence (P04049 whole entry): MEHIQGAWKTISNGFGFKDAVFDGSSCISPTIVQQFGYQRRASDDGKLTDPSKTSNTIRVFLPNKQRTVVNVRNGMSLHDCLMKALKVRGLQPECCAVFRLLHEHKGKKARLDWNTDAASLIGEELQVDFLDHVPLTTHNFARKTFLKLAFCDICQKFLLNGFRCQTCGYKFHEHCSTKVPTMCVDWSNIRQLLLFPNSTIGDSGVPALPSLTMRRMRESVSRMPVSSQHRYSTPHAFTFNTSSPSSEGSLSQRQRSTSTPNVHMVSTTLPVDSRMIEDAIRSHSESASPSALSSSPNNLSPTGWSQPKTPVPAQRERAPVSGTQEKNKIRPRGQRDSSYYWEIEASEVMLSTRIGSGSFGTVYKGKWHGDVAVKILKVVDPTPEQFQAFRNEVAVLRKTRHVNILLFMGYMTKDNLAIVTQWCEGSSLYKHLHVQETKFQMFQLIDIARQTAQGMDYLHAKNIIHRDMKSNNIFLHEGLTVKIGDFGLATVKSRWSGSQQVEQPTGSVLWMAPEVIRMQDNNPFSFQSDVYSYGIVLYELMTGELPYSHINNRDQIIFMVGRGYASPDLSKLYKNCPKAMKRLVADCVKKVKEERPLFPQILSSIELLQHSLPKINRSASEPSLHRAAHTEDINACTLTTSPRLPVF
Protocol: as §1

PLK3 = PLK3 (Homo sapiens, UniProt Q9H4B4)
Protocol: as §1

CLK4 = CLK4 (Homo sapiens, UniProt Q9HAZ1)
Protocol: as §1

IRAK4 = IRAK4 (Homo sapiens, UniProt Q9NWZ3)
IRAK4, sequence (Q9NWZ3 whole entry): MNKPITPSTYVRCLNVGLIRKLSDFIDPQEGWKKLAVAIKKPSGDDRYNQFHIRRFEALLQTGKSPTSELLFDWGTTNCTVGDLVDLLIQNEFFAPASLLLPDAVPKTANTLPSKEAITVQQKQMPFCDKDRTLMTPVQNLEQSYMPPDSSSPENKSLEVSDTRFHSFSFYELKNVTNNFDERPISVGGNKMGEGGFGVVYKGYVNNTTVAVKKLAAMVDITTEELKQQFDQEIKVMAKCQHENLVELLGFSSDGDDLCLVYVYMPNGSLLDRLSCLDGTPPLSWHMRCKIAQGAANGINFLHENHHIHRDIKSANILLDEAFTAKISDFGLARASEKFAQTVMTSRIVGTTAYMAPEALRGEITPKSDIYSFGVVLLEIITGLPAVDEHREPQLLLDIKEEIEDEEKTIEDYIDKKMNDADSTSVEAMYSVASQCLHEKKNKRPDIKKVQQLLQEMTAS
Protocol: as §1

PLK2 = PLK2 (Homo sapiens, UniProt Q9NYY3)
Protocol: as §1

TBK1 = TBK1 (Homo sapiens, UniProt Q9UHD2)
TBK1, sequence (Q9UHD2 whole entry): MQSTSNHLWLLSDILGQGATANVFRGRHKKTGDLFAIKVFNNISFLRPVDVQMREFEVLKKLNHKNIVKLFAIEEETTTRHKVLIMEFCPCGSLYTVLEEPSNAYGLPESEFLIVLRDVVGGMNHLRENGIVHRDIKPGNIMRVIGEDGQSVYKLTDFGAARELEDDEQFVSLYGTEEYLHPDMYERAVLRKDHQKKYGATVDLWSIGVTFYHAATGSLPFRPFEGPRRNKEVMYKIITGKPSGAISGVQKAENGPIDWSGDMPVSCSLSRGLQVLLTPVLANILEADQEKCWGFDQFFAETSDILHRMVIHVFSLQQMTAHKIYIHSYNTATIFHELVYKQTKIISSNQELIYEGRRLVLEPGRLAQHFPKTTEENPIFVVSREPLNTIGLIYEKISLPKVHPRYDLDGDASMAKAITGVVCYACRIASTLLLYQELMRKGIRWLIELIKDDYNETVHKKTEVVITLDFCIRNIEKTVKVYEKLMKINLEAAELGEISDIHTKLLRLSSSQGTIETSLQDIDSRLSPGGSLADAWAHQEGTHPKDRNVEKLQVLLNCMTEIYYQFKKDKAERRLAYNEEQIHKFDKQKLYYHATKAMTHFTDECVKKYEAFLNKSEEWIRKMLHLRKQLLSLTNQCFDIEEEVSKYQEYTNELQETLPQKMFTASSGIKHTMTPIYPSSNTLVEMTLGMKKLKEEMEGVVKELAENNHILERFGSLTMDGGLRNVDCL
Protocol: as §1

VEGFR2 = VEGFR2 (Homo sapiens, UniProt P35968)
Protocol: as §1

TLK1, sequence (Q9UKI8 whole entry): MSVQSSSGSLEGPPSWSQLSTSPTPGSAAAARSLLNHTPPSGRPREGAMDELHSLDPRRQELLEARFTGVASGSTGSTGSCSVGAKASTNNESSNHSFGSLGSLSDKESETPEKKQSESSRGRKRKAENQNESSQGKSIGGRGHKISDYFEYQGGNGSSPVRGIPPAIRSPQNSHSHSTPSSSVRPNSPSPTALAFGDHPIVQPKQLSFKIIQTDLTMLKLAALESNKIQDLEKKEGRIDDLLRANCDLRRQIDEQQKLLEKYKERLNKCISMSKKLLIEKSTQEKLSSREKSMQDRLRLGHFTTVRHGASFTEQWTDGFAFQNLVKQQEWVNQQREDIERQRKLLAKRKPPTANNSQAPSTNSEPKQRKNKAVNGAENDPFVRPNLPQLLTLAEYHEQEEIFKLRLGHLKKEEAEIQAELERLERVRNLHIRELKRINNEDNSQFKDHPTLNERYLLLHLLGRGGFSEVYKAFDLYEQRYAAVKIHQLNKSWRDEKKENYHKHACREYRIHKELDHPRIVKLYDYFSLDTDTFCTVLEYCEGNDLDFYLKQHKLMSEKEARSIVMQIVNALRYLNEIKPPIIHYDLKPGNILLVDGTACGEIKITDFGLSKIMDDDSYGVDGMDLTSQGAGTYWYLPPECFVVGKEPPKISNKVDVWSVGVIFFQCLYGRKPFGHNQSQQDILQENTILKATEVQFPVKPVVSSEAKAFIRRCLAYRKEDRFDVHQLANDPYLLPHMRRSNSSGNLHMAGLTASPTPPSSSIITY
CAMKK2, sequence (Q96RR4 whole entry): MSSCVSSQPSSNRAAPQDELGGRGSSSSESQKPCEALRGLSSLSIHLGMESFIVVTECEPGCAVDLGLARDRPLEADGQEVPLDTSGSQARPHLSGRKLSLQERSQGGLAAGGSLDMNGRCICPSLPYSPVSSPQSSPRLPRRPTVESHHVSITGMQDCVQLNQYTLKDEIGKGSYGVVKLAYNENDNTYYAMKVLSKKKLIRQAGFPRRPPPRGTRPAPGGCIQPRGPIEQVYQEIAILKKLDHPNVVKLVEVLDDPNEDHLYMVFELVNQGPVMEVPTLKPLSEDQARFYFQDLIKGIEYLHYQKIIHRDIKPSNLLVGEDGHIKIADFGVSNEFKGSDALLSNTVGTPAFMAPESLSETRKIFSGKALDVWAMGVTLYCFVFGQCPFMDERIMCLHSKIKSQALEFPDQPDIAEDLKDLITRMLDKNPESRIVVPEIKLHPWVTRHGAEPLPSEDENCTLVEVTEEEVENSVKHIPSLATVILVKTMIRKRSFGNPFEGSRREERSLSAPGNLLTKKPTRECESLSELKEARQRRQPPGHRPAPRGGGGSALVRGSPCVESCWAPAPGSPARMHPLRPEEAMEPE

In the case of O=C1CCC(N2C(=O)c3cccc(NCCCCCCCCNC(=O)N4CC[C@H](NC5=Nc6cc(F)ccc6N(CC(F)F)c6ccc(Cl)cc65)C4)c3C2=O)C(=O)N1 (stereo partly drawn) [BJG-05-039, (3S)-3-((2-Chloro-5-(2,2-difluoroethyl)-8-fluoro-5H-dibenzo[b,e][1,4]diazepin-11-yl)amino)-N-(8-((2-(2,6-dioxopiperidin-3-yl)-1,3-dioxoisoindolin-4-yl)amino)octyl)pyrrolidine-1-carboxamide], the remaining binding at 10 µM (PHKG2) is reported as 40%, the remaining binding at 10 µM (DAPK2) is reported as 41% and the remaining binding at 10 µM (CAMKK2) is reported as 46%. For the same compound, the remaining binding at 10 µM (RET) was 46%, the remaining binding at 10 µM (TLK1) was 46% and the remaining binding at 10 µM (TSSK1B) was 73%. It also gave a remaining binding at 10 µM (PIM1) of 75%, a remaining binding at 10 µM (ULK1) of 78% and a remaining binding at 10 µM (DCAMKL3) of 79%. It also gave a remaining binding at 10 µM (PIKFYVE) of 79%, a remaining binding at 10 µM (PIM2) of 82% and a remaining binding at 10 µM (CSNK1A1L) of 83%. It also gave a remaining binding at 10 µM (TAOK3) of 85%, a remaining binding at 10 µM (KIT(D816V)) of 87% and a remaining binding at 10 µM (PAK2) of 87%. It also gave a remaining binding at 10 µM (SGK3) of 88%, a remaining binding at 10 µM (CTK) of 89% and a remaining binding at 10 µM (EPHA7) of 90%. For the same compound, the remaining binding at 10 µM (PCTK3) was 91%, the remaining binding at 10 µM (SLK) was 91% and the remaining binding at 10 µM (ERN1) was 93%. It also gave a remaining binding at 10 µM (CLK2) of 95%, a remaining binding at 10 µM (SIK) of 95% and a remaining binding at 10 µM (RAF1) of 97%. For the same compound, the remaining binding at 10 µM (PLK3) was 99%, the remaining binding at 10 µM (CLK4) was 100% and the remaining binding at 10 µM (IRAK4) was 100%. The remaining binding at 10 µM (PLK2) was 100%, the remaining binding at 10 µM (TBK1) was 100% and the remaining binding at 10 µM (VEGFR2) was 100%.
